Experimental data as given in patent publication US10617701B2, “Nutritional compositions containing phosphatidylethanolamine, sphingomyelin and docosahexaenoic acid” (Mead Johnson Nutrition Company, priority 2015, dated 2020).

Key:
[1] = test system: embryonic mouse cortical cells; assay: Functional neuronal maturation of cortical networks on microelectrode arrays (MEA recording, chronic treatment); format: cell-based; details: for acute effect on neuronal network activity in vitro: cortical networks on MEAs
Procedure: Cortical cells were grown on multi-well microelectrode arrays (MEAs) and treated with 10 different experimental series, including different combinations of test agents (PE, SM, LF and DHA) and the activity was recoded at 4 different time points during the 4 weeks of functional neuronal maturation Cells growing on glass slides were treated in parallel for morphological and cell population analysis. These experiments aimed to elucidate whether the test compounds affect the functional and morphological neuronal maturation […] (see FIG. 1).
All experiments were performed according to the standard operating protocols (SOPs): “SOP Preparation Frontal Cortex Mouse—Serum,” “SOP Solutions for Neuronal Cell Culture,” “SOP Cleaning and Substrate Preparations of MEAs,” “SOP Feeding neuronal cell culture,” “SOP Cell culture preparation MEAs,” “SOP Plexon Recording,” “SOP Plexon Data Analysis.”
Microelectrode Array Neurochips: THE MEA neurochips were provided by the Center for Network Neuroscience (CNNS) at the University of North Texas. These 5×5 cm^2 glass chips have a dual recording matrix with 32 passive electrodes per matrix and indium tin oxide conductors. The hydrophobic insulation material surface was activated by a brief butane flame pulse through a stainless steel mask. Thus, cell attachment on a confined adhesive region (5 mm diameter centered on the electrode array) is ensured. The activated surface regions were coated with poly-D-lysine (25 microgram/mL; 30-70 kD) and incubated overnight. […]
Primary cell culture for MEA recordings: In brief, frontal cortex tissue was harvested from embryonic day […] NMRI mice. […] Cultures on MEAs were incubated at 37° C. in a 10% CO2 atmosphere until ready for use, which usually is four weeks to three months after seeding. […]
Multichannel Recording: After establishing a stable activity pattern after 4 weeks, the neuronal networks on MEA chips are employed for substance testing. […] The signals routinely recorded by these neurochips are located in a range of 15-1800 […] . […]

[2] = test system: embryonic mouse cortical cells; assay: Immunocytochemistry / fluorescence image analysis of neuronal network morphology (neuron number, % neurons, synaptic density); format: cell-based; details: chronic treatment over 4 weeks
Procedure: Primary Cell culture for immunocytochemistry and Fluorescence staining: The chronically treated cultures were grown on 24-well plates on 13 mm glass cover slides and cultured with PNGM medium including 5% FCS and gentamycin+ampicillin. The cells were treated 2× per week during ⅓ medium exchange. The complete concentration of phospholipids was replenished every time.
Immunocytochemistry and Fluorescence staining: These 24 well-plate cultures were analyzed by immunocytochemistry, fluorescence microscopy and semiautomatic quantitative image analysis at 7, 14, 21, and 28 days. […] Cortical networks were embedded with Prolong anti-fade gold (Invitrogen, Darmstadt, Germany) and images acquired with an upright fluorescence microscope (Nikon Eclipse TE200, NikonAG, Tokyo, Japan).
Image analysis: These images were analyzed by semi-automatic image quantification tools (MS Excel macro-based in house analyses; ImageJ, Rawak Software, NIH, USA). […]
The repeated treatment with LF+PE+SM+DHA affects development of neuronal network morphology: The recorded networks were fixed after the final 28 div recording and immunostained for neuronal markers. Images were taken and the cell neuronal numbers quantified by semi-automatic image analyses.

Row | Substance | acute effect on neuronal network activity in vitro [1] | synaptic density [2] | developmental halt at later stages ([1]; repeated treatment 2x per week, DHA 20 μM, PE 100 nM, LF 300 nM, SM 100 nM, recorded at 7-10, 14, 21 and 28 div, FIG. 2)
1 | phosphatidylethanolamine [PE] | acutely affect neuronal network activity |  | 
2 | sphingomyelin [SM] | acutely affect neuronal network activity | able to increase the synaptic density | developmental halt at later stages
